Where two headings read alike, the source gives them in different places.
Legend:
Erythropoietin (EPO) [1] = assay: EPO plasma concentrations in healthy adult cats, daily oral dosing; type: in vivo, cat; conditions: 6 hours post treatment, all study days measured
Excerpt: (§1) This study evaluated the effects of molidustat on red blood cell parameters in healthy, adult cats, if administered daily via the oral route at different dosages and using different formulations of molidustat sodium. The hematocrit, erythropoietin (EPO) and molidustat plasma concentrations during the treatment phase were examined, with hematocrit representing the main outcome parameter.
(§2) Twenty-two adult cats were randomized to three treatment groups and one control group with 5 and 6 cats/group respectively (3 (2) male/3 female). After a baseline phase of two weeks the cats were orally treated in fasted condition once daily. […] The oily suspensions were in accordance with the oily suspension described in Example 1.
(§3) For evaluation of the hematological parameters blood samples were taken at regular intervals before, during and after the treatment phase. Additionally, plasma samples were collected at study day (SD) 0, SD 7 and SD 23 before and after treatment and analyzed for their concentration of EPO and molidustat.

healthy, adult cats [2] = assay: Pharmacodynamic effects on hematocrit in healthy adult cats, daily oral dosing; type: in vivo, cat
Excerpt: as §1, §2
To keep the application volume per kg bodyweight (BW) consistent for each animal the oily suspension of molidustat was available at two different concentrations (5% and 10%), so that each cat was treated with 0.1 mL/kg BW of the respective formulation.
as §3

healthy, adult cats [3] = assay: Tolerability and safety in healthy adult cats, daily oral dosing (Example 3); type: in vivo, cat; conditions: once daily oral
Excerpt: as §2
Treatments had no impact on the cats' body weight. None of the findings observed during the physical examinations or general health observations were rated as having a negative impact on the outcome of the study. The most frequently observed findings were vomiting of small amounts of fluid.

[4] = Plasma pharmacokinetics, oral bioavailability and dose proportionality after single oral dose; type: in vivo, cat; conditions: both sexes, geometric mean (CV)
Protocol: (§4) The test item was applied as single oral dose at the expected target dose rate of 5 mg molidustat sodium per kg bw, at 2.5 mg/kg and at 10 mg/kg to healthy adult cats. A single intravenous bolus dose of 5.0 mg/kg was applied for comparison using a suitable reference item (molidustat sodium aqueous solution 2.0% (m/v)).
(§5) Following a mixed serial/cross-over design, 16 healthy, adult cats (8 neutered males, 8 spayed females) were included in the study and allocated to […]. The animals were between 13.7 and 14.7 months old and weighed between 3.3 and 6.0 kg at start of the in-life phase.
(§6) The dose rates administered were at means of 2.42 mg/kg, 4.79, and 9.54 mg molidustat sodium per kg for the 0.5×, 1×, 2× dose groups, respectively. The reference item was dosed at an actual mean dose rate of 5.15 mg/kg. Dose rate calculations were based on the body weights determined prior to each study period.
(§7) Fifteen blood samples were drawn per animal after oral dosing (16 samples/animal after intravenous dosing) following a pre-determined schedule deemed suitable to describe the pharmacokinetic profile of the active substance contained in the test and reference item after single oral or intravenous dosing to cats.
(§8) Concentrations of the active substance molidustat and its major […] were analyzed by High Performance Liquid Chromatography/Tandem Mass Spectrometry in accordance with method 01469 (Krebber et al., Analytical method for the determination of BAY 85-3934 and its metabolite BAY 116-3348 in plasma by LC-MS/MS, BAG-CS report MR-15/109). The lower limit of quantitation was 5 μg/L for each substance.
(§9) Pharmacokinetic evaluation of plasma concentration data was based on the observed data using non-compartmental methods and comprised all PK-parameters to adequately describe the absorption, distribution and elimination phase of the active substance and its metabolite after oral or intravenous dosing with the test or reference item. For pharmacokinetic evaluation actual individual dose rates were used to account for the small differences between target and actual dose rates. All animals finished the in-life phase according to schedule.

cats = assay: Clinical tolerance after two oral treatments (Example 2); type: in vivo; conditions: two oral treatments at 3.0 mg/kg in cats
Protocol: (§10) The animals were treated in a fasted prandial state with the test item at a single oral dose rate of 3.0 mg/kg. After a wash out period of 14 days the animals were treated with the test item at the same dose rate and same administration route, but in a fed prandial state. Frequent blood samplings at fixed intervals were performed over a period of 48 hours after each treatment.
(§11) Peak and extent of plasma exposure of molidustat was higher if administered orally as sodium salt to cats at fasted prandial state compared to fed prandial state. Metabolized molidustat amounted to approximately 60% in total exposure independent of prandial state.

[5] = system: cats with anemia associated with CKD; assay: Placebo-controlled field study, efficacy (HCT/PCV) in cats with anemia associated with CKD; type: in vivo, cat
Excerpt: The objective of this study was to evaluate the safety and efficacy of molidustat to manage anemia associated with chronic kidney disease (CKD) in cats.
A total of 65 cats were screened at 11 US and 9 EU sites. Twenty-three (23) cats (13 cases from 9 sites in the US and 10 cases from 9 sites in the EU), with nearly equally distributed genders, mostly domestic shorthair breed, ranging in age from 4 to 17 years, and having initial body weights between 2 and 6 kilograms, were randomized and administered one of the two treatments. A total of 21 cats were included in the 28-day efficacy phase.

Erythropoietin (EPO) [6] = assay: Erythropoietin concentrations after single oral administration (Example 2); type: in vivo, cat; conditions: 6 hours after treatment, oral 3.0 mg/kg to fed or fasted cats
Protocol: (§12) Four adult, healthy, female European Shorthaired cats were selected for the study. On the day prior to treatment feed was withdrawn to ensure a fasted prandial state for the oral treatment.
as §10, §11

[7] = Plasma pharmacokinetics after repeated once daily oral dosing of 2.5% (m/v) oily suspension; type: in vivo, cat; conditions: for AUC / Cmax / Tmax / half-life: both sexes, plasma, po, 4.8 mg/kg, 4.8 mg molidustat sodium per kg once daily oral, geometric mean (CV)
Protocol: Following a single group design, eight healthy, young adult cats (4 neutered males, 4 spayed females) were included in the study. The animals were between 14 and 15.5 months old and weighed between 3.35 and 4.95 kg at start of the in-life phase.
The dose rate administered was 4.8 mg molidustat sodium per kg. Dosing was once daily on 6 consecutive days keeping an interval of 24 h. Dose rate calculation was based on the body weights determined on SD-1 for all administrations.
Thirty-one blood samples were drawn per animal following a pre-determined schedule deemed suitable to describe the pharmacokinetic profile of the active substance contained in the test item after repeated dosing to cats.
Concentrations of the active substance molidustat and its major metabolite in plasma were analyzed by High Performance Liquid Chromatography/Tandem Mass Spectrometry. The lower limit of quantitation was 5 μg/L for each substance.
Pharmacokinetic evaluation of plasma concentration data was based on the observed data using non-compartmental methods and comprised all PK-parameters to adequately describe the absorption, distribution and elimination phase of the active substance and its metabolite after repeated dosing with the test item.

[8] = Plasma pharmacokinetics after single intravenous bolus dose; type: in vivo, cat; conditions: for Vd: read-out: volume of distribution
Protocol: as §4, §5, §6, §7, §8, §9

[9] = system: cats with anemia associated with CKD; assay: Field study, in-use safety in cats with anemia associated with CKD
Protocol: This study was conducted using a single protocol in the United States (US, n=23 clinics) and Europe (EU, n=11 clinics) over a 10 month period. On study day (SD) −7 (±2 days), blood was collected for serum chemistry and hematology from cats that qualified for enrollment. After meeting enrollment criteria, cats were orally treated once daily for at least 28 consecutive days (SD 0 to SD 27) with either the control product (CP [vehicle]) or molidustat. The molidustat was administered orally at a dose of 5 mg/kg body weight (bw) (0.2 mL/kg bw). Blood was collected to assess hematological parameters on SDs 0, 7, 14, 21 and 28 (±2 days for all time points except SD 0). Blood was also collected for evaluating serum chemistry on SD 28 (±2 days), except creatinine. Hematocrit (HCT) and packed cell volumes (PCV, performed at each clinic) were the primary hematological parameters of interest. Individual animal treatment success was evaluated up to and including SD 28±2 using three different criteria, as well as using only the data on SD 28.

[10] = Plasma pharmacokinetic study after single oral administration to fasted and fed cats; type: in vivo, cat; conditions: for AUC / AUC(0-t) / Cmax / Tmax: female, European Shorthaired, plasma, po, 3 mg/kg; for AUC / AUC(0-t) / Cmax / Tmax / Clb / MRTint / Vz / t1//2: 3.0 mg molidustat sodium per kg; for AUC / AUC(0-t) / Cmax / Clb / MRTint / Vz / t1//2: geometric mean; for Tmax: median
Protocol: as §12
The pharmacokinetic profile of the HIF-PHI was determined in plasma of 3 adult, female, healthy European Shorthaired cats with a mean body weight of 3.5 kg (StD=0.41 kg). One animal was removed from the study due to difficult handling of the animal.
as §10
The plasma samples were analyzed with regard to their concentrations of molidustat and its metabolite by HPLC using a tandem mass spectrometric detector (AB Sciex API 4000).
From the individual plasma concentration-time-profiles obtained pharmacokinetics (PK) were derived using non-compartmental analyses.

[11] = SD 21, baseline-controlled analysis
[12] = SD 28, baseline-controlled analysis
[13] = both sexes, plasma, 5 mg/kg, single intravenous bolus 5 mg molidustat sodium per kg
[14] = female, plasma, iv, 5 mg/kg, females
[15] = male, plasma, iv, 5 mg/kg, males

## [Na+].[O-]c1c(-n2ccnn2)cnn1-c1cc(N2CCOCC2)ncn1 [molidustat sodium, sodium 1-[6-(morpholin-4-yl)pyrimidin-4-yl]-4-(1H-1,2,3-triazol-1-yl)-1H-pyrazol-5-olate]
Erythropoietin (EPO) [1]
  EPO concentrations compared to the placebo group: significantly differed
healthy, adult cats [2]; 5 mg/kg once daily oral, at SD 14
  mean hematocrit compared to placebo: significantly higher
healthy, adult cats [2]; 10 mg/kg once daily oral, already at SD 7
  mean hematocrit compared to placebo: significantly higher
healthy, adult cats [2]; after cessation of treatment
  study day from which mean hematocrit was comparable to placebo group: SD 70
  study day on which mean hematocrit returned to levels within reference range: SD 56
healthy, adult cats [2]; all treated animals, for up to 42 days after treatment
  hematocrit relative to reference range: increase in hematocrit above the reference range
healthy, adult cats [3]; all study groups
  tolerability and safety: very well tolerated and safe
healthy, adult cats [3]
  impact on body weight: no impact

## O=c1c(-n2ccnn2)c[nH]n1-c1cc(N2CCOCC2)ncn1 [molidustat, 2-[6-(morpholin-4-yl)pyrimidin-4-yl]-4-(1H-1,2,3-triazol-1-yl)-2,3-dihydro-1H-pyrazol-3-one]
[4]; 2.5 mg/kg single oral dose
  AUC: 5600 ng·h/mL
  Cmax: 2700 ng/mL
  Tmax: 0.5 h
  half-life: 5 h
[4]; 5.0 mg/kg single oral dose
  AUC: 12700 ng·h/mL
  Cmax: 3830 ng/mL
  Tmax: 1 h
  half-life: 4.6 h
[4]; 10 mg/kg single oral dose
  AUC: 23500 ng·h/mL
  Cmax: 6730 ng/mL
  Tmax: 1 h
  half-life: 7.1 h
cats
  clinical tolerance: clinically well tolerated without any clinical signs of intolerance
[5]; 8 cats, 5 mg/kg or intermittent 2.5 mg/kg
  HCT and PCV levels throughout the continuation phase: maintained or increased
[5]; SD 14, p=0.0167
  PCV increase relative to baseline: 2.21%
[5]; SD 14, p=0.0643
  HCT increase relative to baseline: 1.87%
[5]; [11]
  HCT difference from average baseline: 3.91%
  PCV difference from average baseline: 3.46%
[5]; SD 21, p-values<0.01
  HCT and PCV results compared to the CP group: significantly greater
[5]; SD 21 and SD 28, once daily for 28 days at 5 mg/kg, anemic cats
  PCV/HCT in comparison to SD 0: significantly increased
[5]; [12]
  HCT difference from average baseline: 3.68%
  PCV difference from average baseline: 3.89%
[5]; SD 28, p<0.061
  HCT and PCV increases compared to the CP group: approached statistical significance
Erythropoietin (EPO) [6]
  Erythropoietin (EPO) concentrations: highly increased
[7]; first dose
  AUC: 13300 ng·h/mL
  Cmax: 4460 ng/mL
  Tmax: 0.64 h
  half-life: 4.2 h
[7]; last (6th) dose
  AUC: 13300 ng·h/mL
  Cmax: 4100 ng/mL
  Tmax: 0.94 h
  half-life: 6.5 h
[7]; repeated once daily oral dosing, 6 days
  accumulation index: 1.1
[8]; [13]
  clearance: 5.17 mL/min/kg
  Vd: 2.69 L/kg
[8]; both sexes, plasma, 5 mg/kg, single intravenous bolus 5 mg molidustat sodium per kg, read-out: elimination half-life (converted)
  half-life: 5.91 h
[8]; [14]
  clearance: 5.5 mL/min/kg
  Vd: 2.96 L/kg
[8]; [15]
  clearance: 5 mL/min/kg
  Vd: 2.36 L/kg
[8]; single intravenous bolus 5 mg molidustat sodium per kg (aqueous solution 2.0%)
  mean plasma exposure: 16350 ng·h/mL
[9]; alone or with concomitant medications for CKD
  treatment related adverse events: No treatment related adverse events
[9]; once daily for 28 days at 5 mg/kg
  tolerability of treatment: well tolerated
[10]; oral to fasted cats
  AUC: 8420 ng·h/mL
  AUC(0-t): 8410 ng·h/mL
  Cmax: 3130 ng/mL
  Tmax: 0.67 h
  Clb: 6 mL/min/kg
  MRTint: 3.7 h
  Vz: 3.74 L/kg
  t1//2: 7.28 h
[10]; oral to fed cats
  AUC: 6300 ng·h/mL
  AUC(0-t): 6280 ng·h/mL
  Cmax: 930 ng/mL
  Tmax: 1 h
  Clb: 8 mL/min/kg
  MRTint: 7.0 h
  Vz: 4.59 L/kg
  t1//2: 6.69 h
[10]; oral as sodium salt, 3.0 mg/kg
  peak and extent of plasma exposure, fasted compared to fed prandial state: higher

From patent US20250161317A1, “MOLIDUSTAT FORMULATIONS AND METHODS OF USE FOR TREATMENT OF ANEMIA IN CATS” (ELANCO US INC., priority 2022, published 2025)
